Test results as given in ChEMBL document CHEMBL1156705, “Part 1: Effect of vitamin C on the biological activity of two euryfurylbenzoquinones on TLT, a murine hepatoma cell line” (2008).

Assays:
Type in all cases: functional
[1] = Cytotoxicity against mouse TLT cells assessed as cytoplasmic LDH release at 50 ug/ml after 24 hrs
[2] = Cytotoxicity against mouse TLT cells assessed as cytoplasmic LDH release at 50 ug/ml after 24 hrs in presence of 2 mM vitamin C
[3] = Cytotoxicity against mouse TLT cells assessed as decrease in intracellular ATP level at 1 to 50 ug/ml after 24 hrs by bioluminescence assay relative to control; design: scale not given: the % may be the effect or the level left
[4] = Cytotoxicity against mouse TLT cells assessed as decrease in intracellular ATP level at 1 to 50 ug/ml after 24 hrs by bioluminescence assay relative to control in presence of 2 mM vitamin C; design: scale not given: the % may be the effect or the level left
[5] = Cytotoxicity against mouse TLT cells assessed as decrease in intracellular reduced glutathione level at 1 to 50 ug/ml after 24 hrs by ortho-phthalaldehyde method relative to control; design: scale not given: the % may be the effect or the level left
[6] = Cytotoxicity against mouse TLT cells assessed as decrease in intracellular reduced glutathione level at 1 to 50 ug/ml after 24 hrs by ortho-phthalaldehyde method relative to control in presence of 2 mM vitamin C; design: scale not given: the % may be the effect or the level left
[7] = Induction of apoptosis in mouse TLT cells assessed as effect on caspase 3 activity at 1 ug/ml after 24 hrs by fluorometric assay
[8] = Induction of apoptosis in mouse TLT cells assessed as effect on caspase 3 activity at 1 ug/ml after 24 hrs by fluorometric assay in presence of 2 mM vitamin C
[9] = Induction of apoptosis in mouse TLT cells assessed as effect on caspase 3 activity at 50 ug/ml after 24 hrs by fluorometric assay
[10] = Induction of apoptosis in mouse TLT cells assessed as effect on caspase 3 activity at 50 ug/ml after 24 hrs by fluorometric assay in presence of 2 mM vitamin C
[11] = Induction of apoptosis in mouse TLT cells assessed as effect on caspase 3 activity at 100 ug/ml after 24 hrs by fluorometric assay
[12] = Induction of apoptosis in mouse TLT cells assessed as effect on caspase 3 activity at 100 ug/ml after 24 hrs by fluorometric assay in presence of 2 mM vitamin C
[13] = Induction of apoptosis in mouse TLT cells assessed as increase in caspase 3 activity at 50 ug/ml after 24 hrs by fluorometric assay relative to basal level in presence of 2 mM vitamin C
[14] = Induction of apoptosis in mouse TLT cells assessed as increase in caspase 3 activity at 50 ug/ml after 24 hrs by fluorometric assay relative to basal level
[15] = Cytotoxicity against mouse TLT cells assessed as cytoplasmic LDH release at 1 ug/ml after 24 hrs
[16] = Cytotoxicity against mouse TLT cells assessed as decrease in intracellular ATP level at 50 ug/ml after 24 hrs by bioluminescence assay relative to control in presence of 2 mM vitamin C; design: scale not given: the % may be the effect or the level left
[17] = Cytotoxicity against mouse TLT cells assessed as decrease in intracellular reduced glutathione level at 50 ug/ml after 24 hrs by ortho-phthalaldehyde method relative to control in presence of 2 mM vitamin C; design: scale not given: the % may be the effect or the level left

Row | SMILES | Activity [1] [%] | Activity [2] [%] | Activity [3] [%] | Activity [4] [%] | Activity [5] [%] | Activity [6] [%] | Activity [7] [mU] | Activity [8] [mU] | Activity [9] [mU] | Activity [10] [mU] | Activity [11] [mU] | Activity [12] [mU] | Activity [13] | Activity [14] | Activity [15] [%] | Activity [16] [%] | Activity [17] [%]
1 | CC1(C)CCCC2(C)c3coc(C4=CC(=O)C=CC4=O)c3CCC12 (centres undefined) | 28 | 28 | 40 | 40 | 60 | 60 | 21.3 | 15.1 | 37.2 | 25.6 | 51.1 | 57.8 | 3.5 | 2.5 | – | – | –
2 | CC1(C)CCCC2(C)c3coc(C4=C([N+](=O)[O-])C(=O)C=CC4=O)c3CCC12 (centres undefined) | – | 60 | – | – | – | – | 31.9 | 12.8 | 27.4 | 10.7 | 22.5 | 1 | – | – | 28 | 50 | 25
